This is an account of results in ChEMBL document CHEMBL2095176, “GSK Tuberculosis Screening Data”.

Structures are written as SMILES. Converted amounts (≈) assume the structure as drawn.

This assay concerns Mycobacterium tuberculosis variant bovis BCG. Put plainly: microbe, parasite or virus in culture. The class given is functional.
As to `COc1ccc(Nc2nc(CN3CCN(Cc4ccc(C#N)cc4)CC3)cs2)cc1`, the MIC90 amounted to 8.6 µM (≈ 3.61 µg/mL).
`Cc1ccc(-n2ncc3c(N4CCCNCC4)nc(C4CC4)nc32)cc1` came in with an MIC90 of 3.9 µM (≈ 1.36 µg/mL).
As for `c1ccc(COc2ccc(CN3CCC4(CC3)OCCc3sccc34)cc2)nc1`, the figure is 6.4 µM (≈ 2.6 µg/mL).
As for `Nc1cccnc1Nc1ccc(Cl)cc1`, the figure is 1.1 µM (≈ 0.242 µg/mL).
`N#Cc1nc(-c2ccccc2F)oc1NCCc1ccccc1` showed an MIC90 of 7.9 µM (≈ 2.43 µg/mL).
`Cc1cc(C)c2cc(C(=O)NC3CCCCC3)[nH]c2c1` registered an MIC90 of 2.8 µM (≈ 0.757 µg/mL).
For `NC(=O)c1cnc2ccc(S(=O)(=O)c3ccccc3)cc2c1Nc1ccc(O)c(F)c1` the value was 7.5 µM (≈ 3.28 µg/mL).
For the compound `Cc1ccc(C)c(-c2nnc(NC(=O)c3ccc(Br)s3)o2)c1`, the MIC90 worked out at 1.6 µM (≈ 0.605 µg/mL).
On to `O=C(O)C(F)(F)F.c1ccc(C[C@H]2CN(c3nccc(Oc4ccc(-n5ccnc5)cc4)n3)CCN2)cc1`, for which the MIC90 was found to be 8.2 µM.
On to `Oc1ccc(Nc2ccccc2Nc2ccccc2)cc1Cl`, for which the MIC90 is 7.7 µM (≈ 2.39 µg/mL).
In turn, `FC(F)(F)c1nnc2ccc(Cl)nn12` gave an MIC90 of 6.6 µM (≈ 1.47 µg/mL).
For `CCc1c(C)nc(-n2nc(C)cc2NC(=O)c2cccc3ccccc23)[nH]c1=O` the value was 1.8 µM (≈ 0.697 µg/mL); for `C=Cn1cccc1C(=O)N1CCCC(n2cnc3sc(C)c(CC)c3c2=O)C1` (stereo not drawn), 7.3 µM (≈ 2.89 µg/mL); for `Cc1ccc2sc(N(CCCn3ccnc3)C(=O)c3ccco3)nc2c1C`, 5.6 µM (≈ 2.13 µg/mL).
As for `Nc1cccnc1Nc1ccc(C(F)(F)F)cc1`, the figure is 3.7 µM (≈ 0.937 µg/mL); as for `CSc1cccc(-c2nnc(NC(=O)c3ccc4c(c3)CCCC4)o2)c1`, 7.2 µM (≈ 2.63 µg/mL).
For `Cc1nnc(NCc2ccccc2)c2ccccc12` the value was 4.4 µM (≈ 1.1 µg/mL).
In the case of `O=C(Nc1nnc(-c2ccccc2)o1)c1cccc(C(F)(F)F)c1`, the MIC90 stood at 3.6 µM (≈ 1.2 µg/mL).
The compound `CC(C)c1ccc(-c2cncc(N3CCN(c4ccncc4)CC3)n2)cc1` had an MIC90 of 5.1 µM (≈ 1.83 µg/mL).
Compound `CCCNc1cc(-c2ccccc2)nc(-n2nc(C)cc2C)n1` had an MIC90 of 5 µM (≈ 1.54 µg/mL).
For `O=C(Nc1nc(-c2ccccn2)cs1)c1ccc2c(c1)CCCC2` the value was 6.8 µM (≈ 2.28 µg/mL); for `O=C(c1[nH]nc2c1CCCC2)N1CCN(Cc2ccc3c(c2)OCO3)CC1`, 3.9 µM (≈ 1.44 µg/mL); for `CC(=O)Nc1ccc(S(=O)(=O)Nc2ccc(N3CCCCC3)cc2)cc1`, 5.2 µM (≈ 1.94 µg/mL).
The compound `Cc1cccc2nc(C(=O)Nc3nc(CN4CCC(C)CC4)cs3)cn12` gave an MIC90 of 2 µM (≈ 0.739 µg/mL).
In turn, `CCCCCNc1nc(N2CCCC2)c2c(c1C#N)CCN(C)C2` gave an MIC90 of 1.6 µM (≈ 0.524 µg/mL).
In turn, `CCOc1ccc(-c2nc(NC(=O)C3CCCN3S(=O)(=O)c3cccs3)sc2C)cc1` (stereo not drawn) had an MIC90 of 2 µM (≈ 0.955 µg/mL).
On to `CCCc1cc(=O)[nH]c(-n2nc(C)cc2NC(=O)c2cc3ccccc3o2)n1`, for which the MIC90 was determined as 1.4 µM (≈ 0.528 µg/mL).
As for `Cc1ccc2nc(C(F)(F)F)c(C(=O)NCc3cc(Cl)cc(Cl)c3)n2c1`, the figure is 0.6 µM (≈ 0.241 µg/mL); as for `O=C(COc1ccc(-c2ccccc2)cc1)NNC(=O)c1ccco1`, 2.5 µM (≈ 0.841 µg/mL); as for `Cc1nc(-c2cccc(C(F)(F)F)c2)nc(N2CCNCC2)c1C`, 0.5 µM (≈ 0.168 µg/mL).
As for `CCOc1cc(OC)c(C(=O)Nc2cccc3c2CCNC3C)cc1Cl` (stereo not drawn), the MIC90 was 3.7 µM (≈ 1.39 µg/mL).
On to `Cc1c(C(=O)Nc2ccccc2)nnc2cc(-c3ccccc3)nn12`, for which the MIC90 came out at 3.1 µM (≈ 1.02 µg/mL).
In turn, `Cc1ccc(CNC(=O)c2cnn3c2NC(c2ccc(C)cc2)CC3C(F)F)cc1` (stereo not drawn) gave an MIC90 of 0.9 µM (≈ 0.369 µg/mL).
The compound `CC(=O)N1CCc2cc3nc(C)cc(C)c3cc21` registered an MIC90 of 3.5 µM (≈ 0.841 µg/mL).
As for `Fc1cccc2sc(Nc3nc(-c4ccccn4)cs3)nc12`, the figure is 2.3 µM (≈ 0.755 µg/mL); as for `CC(c1nc2ccccc2s1)N(C)C(=O)c1cccc(-n2cnnn2)c1` (stereo not drawn), 5.6 µM (≈ 2.04 µg/mL); as for `CC1=NN(C(=O)c2ccncc2)C(O)(c2ccncc2)C1` (stereo not drawn), 2.6 µM (≈ 0.734 µg/mL).
In the case of `Nc1nonc1-c1nc2c(-c3ccccc3)nccc2n1C1CCNCC1`, the MIC90 was 0.5 µM (≈ 0.181 µg/mL).
For `COc1ccc(-c2ccc(Nc3cccc(S(=O)(=O)CCNCCn4nc(C)cc4C)c3)nc2)cn1` the value was 6.9 µM (≈ 3.5 µg/mL).
The compound `CCOC(=O)c1c(-c2ccccc2)oc2ccc(O)c(CN3CCCCC3)c12` showed an MIC90 of 1.4 µM (≈ 0.531 µg/mL).
Compound `O=C(NC1=NCCS1)c1sc2cc(F)ccc2c1Cl` showed an MIC90 of 8.2 µM (≈ 2.58 µg/mL).
In turn, `O=C(Nc1ccc(Oc2ccccc2)cc1)NC1CCCCC1` came in with an MIC90 of 3.9 µM (≈ 1.21 µg/mL).
With `O=C(NC12CC3CC(CC(C3)C1)C2)c1cc2ccccc2[nH]1`, the MIC90 is 2.5 µM (≈ 0.736 µg/mL).
As for `CCn1c(-c2nonc2N)nc2c(C#Cc3ccccc3)ncc(OCCCCN)c21`, the figure is 8.1 µM (≈ 3.38 µg/mL); as for `CC(=O)N1CCN(Cc2ccc(-c3ccc(NS(=O)(=O)c4ccc(C)cc4)cc3)cc2)CC1`, 9.7 µM (≈ 4.5 µg/mL).
For the compound `CN(C)c1ccc(NC(=O)Nc2cccc3ncccc23)cc1`, the MIC90 was 9.8 µM (≈ 3 µg/mL).
Turning to `COc1ccc(-c2cc(C(=O)NC3CCCCNC3=O)n3nc(C(C)(C)C)cc3n2)cc1` (stereo not drawn), the MIC90 stood at 3.7 µM (≈ 1.61 µg/mL).
For `Clc1ccc(-c2ccc3c(c2)CC(NCc2ccc(-n4cncn4)cc2)C3)cc1` (stereo not drawn) the value was 6.7 µM (≈ 2.69 µg/mL).
